Experimental data: paper PMC6155721, “Hair Growth Promoting and Anticancer Effects of p21-activated kinase 1 (PAK1) Inhibitors Isolated from Different Parts of Alpinia zerumbet” (Molecules : A Journal of Synthetic Chemistry and Natural …, 2017)
Where “and” joins values, the source holds several entries; their conditions need not be identical. Equal entries are not always repeated. Where two headings read alike, the source gives them in different places.

Key:
A549 lung cancer cells = assay: Anticancer activity by MTT assay; assay type: cell-based; conditions: mean ± SE of six replications, read-out: IC50 (μM), anti-cancer activity against the A549 cell line
Description: The assay was performed as previously described. Lung cancer cells (A549) were seeded into a 96-well plate at a density of 1 × 10^4 cells/well, and cultured for 24 h before the compounds were added. The cells were incubated in a humidified atmosphere of 5% CO2 at 37 °C for 72 h. After treatment, 20 μL MTT solution (0.5 mg/mL) was added to each well, and the plates were incubated for 3 h. The medium was removed, and the formazan was dissolved in 200 μL of DMSO. After shaking the plate for 10 min, cell viability was assessed by measuring the absorbance at 490 nm using a microplate reader (Corona, Hitachinaka-ku, Ibaraki, Japan). DMSO was used as a blank. The corrected absorbance of sample was divided by the corrected absorbance of the control, and then multiplied by 100% to give the percentage cell viability.

human PAK1 = human PAK1 (Homo sapiens, UniProt Q13153); assay: In vitro PAK1 inhibition, ADP-Glo kinase assay; assay type: biochemical; conditions: mean ± SE of six replications, read-out: IC50 (μM), in vitro PAK1 inhibitory activity
Description: PAK1 kinase activity was measured using the ADP-Glo™ kinase assay kit (Promega, Madison, WI, USA) according to manufacturer’s instructions. Briefly, human PAK1 (25 ng/reaction) was incubated with test compounds (5 μL) for 10 min. […] The reaction was terminated by adding 25 μL ADP-Glo™ reagent, followed by an incubation time of 40 min. The kinase detection reagent (50 μL) was added to the reaction mixture, and after 30 min of incubation, the luminescence was recorded by MTP-880Lab microplate reader (Corona, Ibaraki, Japan) with an integration time of 0.5 s per well. The percentage inhibition was calculated relative to the control kinase activity without any inhibitor.

[1] = tested on: human follicle dermal papilla cells (HFDPC); assay: Human follicle dermal papilla cell (HFDPC) proliferation, MTT assay; assay type: cell-based; conditions: for proliferation of HFDPC / Cell viability (%) / viability at 10 µM / viability at 50 µM / viability at 100 µM: four days incubation; for viability at 10 µM / viability at 50 µM / viability at 100 µM: Homo sapiens, 96 h
Description: Human follicle dermal papilla cell (HFDPC) (TOYOBO, Tokyo, Japan) proliferation was assayed as described by Nguyen et al.. Cells were cultured in growth medium containing 50 mL papilla cell growth medium (PCGM), 0.5 mL FCS, 0.5 mL BPE, 0.25 mL Cyp, and 0.25 mL ITT (51.5 mL total volume). Cell viability was evaluated using the thiazolyl blue tetrazolium bromide (MTT) assay. Cells were collected and diluted in medium containing D-MEM and 10% FBS at a cell density of 1 × 10^4 cells/mL. Then, cell suspension (200 μL) was transferred into a collagen-coated 96-well plate at a density of 2000 cells/well. After incubation for three days, 200 μL of the isolated compounds in DMEM was added. After four days of incubation, 100 μL of MTT solution in D-MEM (0.4 mg/mL) was added, and the mixture was incubated for 2 h. The untransformed MTT was removed, and 100 μL of 2-propanol was added to each well to dissolve the formazan crystals. The absorbance was read at 570 nm and 650 nm using a microplate reader. The cell viability was calculated from the readings, and represented as a percentage of the control value (cells treated with D-MEM only).

[2] = 100 μM, percentage of control value
[3] = 10 μM, percentage of control value (cells treated with D-MEM only)

Chain of human PAK1 (Q13153 whole entry): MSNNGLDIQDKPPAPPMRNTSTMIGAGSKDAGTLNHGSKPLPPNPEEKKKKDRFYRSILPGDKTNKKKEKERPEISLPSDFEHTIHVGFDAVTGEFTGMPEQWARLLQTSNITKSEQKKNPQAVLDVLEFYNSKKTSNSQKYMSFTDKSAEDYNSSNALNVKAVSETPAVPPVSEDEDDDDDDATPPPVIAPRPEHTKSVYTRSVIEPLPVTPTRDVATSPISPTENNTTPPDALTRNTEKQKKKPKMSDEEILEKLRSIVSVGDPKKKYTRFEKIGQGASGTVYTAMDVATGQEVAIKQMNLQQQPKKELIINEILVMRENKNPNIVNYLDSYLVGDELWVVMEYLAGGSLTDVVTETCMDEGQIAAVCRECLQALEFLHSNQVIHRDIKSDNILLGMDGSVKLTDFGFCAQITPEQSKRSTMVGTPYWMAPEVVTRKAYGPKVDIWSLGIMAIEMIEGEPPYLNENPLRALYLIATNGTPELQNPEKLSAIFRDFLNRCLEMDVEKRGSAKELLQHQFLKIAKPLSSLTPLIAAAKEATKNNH

Compound | IC50 (A549 lung cancer cells; 72 h) [µM] | IC50 (A549 lung cancer cells; Homo sapiens, A549, 72 h) [µM] | IC50 (human PAK1) | proliferation of HFDPC / Cell viability (%) [1, 2] [%] | viability at 10 µM [1, 3] [%] | viability at 50 µM ([1]; percentage of control value) [%] | viability at 100 µM [1, 2] [%] | proliferation of HFDPC / Cell viability (%) [1, 3] | IC50 (A549 lung cancer cells; Homo sapiens, 72 h) [µM] | effect on hair cell proliferation ([1]; at around 50 μM or higher)
COc1cc(/C=C/C(=O)CC(=O)/C=C/c2ccc(O)c(OC)c2)ccc1O [Curcumin, reference compound] | 30.3 ± 2.9 | 30 | – | – | – | – | – | – | – | –
CO/C=C/C=C/C=C/C1C=CC(/C=C/C=C/C=C/OC)O1 (centres unmarked) [MTD] | – | 98.9 ± 9.3 | 59 µM and 58.6 µM | – | 165 | 190 | 113 | – | – | –
Nc1cc(N2CCCCC2)nc(N)[n+]1[O-] [Minoxidil, reference compound] | – | – | – | – | 116 | – | – | 119% | – | –
C=C1CC2CC(C)(C)C(C)(C)CN2CC1CCCCC/C=C/C (centres unmarked) [TMOQ, (E)-2,2,3,3-tetramethyl-8-methylene-7-(oct-6-en-1-yl)octahydro-1H-quinolizine] | – | – | 49 µM and ~50 µM and 49.3 µM | – | 139 | 104 | 68.5 | – | 90.8 ± 1.6 | did not significantly affect the hair cell proliferation

Continued, in another order:

IC50 (A549 lung cancer cells; 72 h) [µM] | IC50 (A549 lung cancer cells; Homo sapiens, A549, 72 h) [µM] | Compound | IC50 (human PAK1) | proliferation of HFDPC / Cell viability (%) [1, 2] [%] | viability at 10 µM [1, 3] [%] | viability at 50 µM ([1]; percentage of control value) [%] | viability at 100 µM [1, 2] [%] | proliferation of HFDPC / Cell viability (%) [1, 3] | IC50 (A549 lung cancer cells; Homo sapiens, 72 h) [µM] | effect on hair cell proliferation ([1]; at around 50 μM or higher)
– | 81.4 ± 1.9 | O=C(O)C1OC(Oc2c(-c3ccc(O)cc3)oc3cc(O)cc(O)c3c2=O)C(O)C(O)C1O [KOG, kaempferol-3-O-β-D-glucuronide] | 39 µM and 39.3 µM | ~180 | 118 | 158 | 181 | – | – | –
67.1 ± 6 | 67 | C=C1CCC2C(C)(C)CCCC2(C)C1C/C=C(/C=O)CC=O (centres unmarked) [Labdadiene, 8(17),12-Labdadiene-15,16-dial] | 52 µM and 52.1 µM | ~226 | 133 | 197 | 227 | about 132% | – | –
